Test results as given in ChEMBL document CHEMBL3885881, “DrugMatrix”.
Where “and” joins values, the source holds several entries; their conditions need not be identical. Equal entries are not always repeated.

Species on record: Rattus norvegicus
Type: toxicity, organism-based, Sprague-Dawley
Details: in vivo, 24 h, vehicle 100 % SALINE; for ALANINE AMINOTRANSFERASE / ALBUMIN / ALKALINE PHOSPHATASE / ASPARTATE AMINOTRANSFERASE / BLOOD UREA NITROGEN / CARBON DIOXIDE / CHLORIDE / CHOLESTEROL / CREATINE PHOSPHOKINASE / CREATININE / GLUCOSE / LACTATE DEHYDROGENASE / PHOSPHORUS / POTASSIUM / SODIUM / TOTAL BILIRUBIN / TOTAL PROTEIN / URIC ACID / LIPASE: tissue Plasma
[1] = sc, 0 mg/kg, vehicle control, tissue Blood, route mini-PUMP - SUBCUTANEOUS, dose level Control, time 1 day
[2] = sc, 0 mg/kg, vehicle control, route mini-PUMP - SUBCUTANEOUS, dose level Control, time 1 day
[3] = sc, 2 mg/kg, tissue Blood, route mini-PUMP - SUBCUTANEOUS, dose level High, time 1 day
[4] = sc, 2 mg/kg, route mini-PUMP - SUBCUTANEOUS, dose level High, time 1 day
[5] = sc, […], tissue Blood, route mini-PUMP - SUBCUTANEOUS, dose 4.2 mg/Kg, dose level M1, time 1 day
[6] = sc, […], route mini-PUMP - SUBCUTANEOUS, dose 4.2 mg/Kg, dose level M1, time 1 day
[7] = ip, 0 mg/kg, vehicle control, tissue Blood, route intraperitoneal, dose level Control, time 1 day
[8] = ip, 0 mg/kg, vehicle control, route intraperitoneal, dose level Control, time 1 day
[9] = ip, 1 mg/kg, tissue Blood, route intraperitoneal, dose level High, time 1 day
[10] = ip, 1 mg/kg, route intraperitoneal, dose level High, time 1 day

Description: DrugMatrix - Regimen: Single

## CC(C)NCC(O)c1ccc(O)c(O)c1 (stereo not drawn) [ISOPROTERENOL]
[1]
  ABSOLUTE SEGMENTED NEUTROPHIL: 1753.5 CELLS/uL
  BASOPHIL: 0.4% and 0%
  EOSINOPHIL: 0.3% and 0.17%
  ERYTHROCYTE COUNT: 6.25 x10E6/uL and 5.64 x10E6/uL
  HEMATOCRIT: 41.8% and 34.52%
  HEMOGLOBIN: 13.33 G/DL and 12.68 G/DL
  LEUKOCYTE COUNT: 11.55 x10E3/uL and 13 x10E3/uL
  LYMPHOCYTE: 72.6% and 84.5%
  MEAN CORPUSCULAR HEMOGLOBIN: 21.37 pg and 22.5 pg
  MONOCYTE: 2.4% and 1.83%
  NEUTROPHIL: 23.4% and 13.5%
  NUCLEATED RED BLOOD CELLS: 0.17 /100WBC
  PLATELET COUNT: 1265.33 x10E3/uL and 679.17 x10E3/uL
[2]
  ALANINE AMINOTRANSFERASE: 40.33 u/L and 42.67 u/L
  ALBUMIN: 3.63 G/DL and 3.77 G/DL
  ALKALINE PHOSPHATASE: 385.33 u/L and 291.17 u/L
  ASPARTATE AMINOTRANSFERASE: 79.33 u/L and 74.5 u/L
  BLOOD UREA NITROGEN: 13.33 mg/dL and 15.33 mg/dL
  CARBON DIOXIDE: 40.67 mmol/L and 30 mmol/L
  CHLORIDE: 103 MEQ/L and 100.83 MEQ/L
  CHOLESTEROL: 86.33 mg/dL and 65.33 mg/dL
  CREATINE PHOSPHOKINASE: 190.33 u/L
  CREATININE: 0.4 mg/dL and 0.15 mg/dL
  GLUCOSE: 165.67 mg/dL and 179.83 mg/dL
  LACTATE DEHYDROGENASE: 103.33 u/L and 162.67 u/L
  PHOSPHORUS: 11.7 mg/dL and 12.2 mg/dL
  POTASSIUM: 5.5 MEQ/L and 5.73 MEQ/L
  SODIUM: 145 MEQ/L and 144.7 MEQ/L
  TOTAL BILIRUBIN: 0.27 mg/dL and 0.15 mg/dL
  TOTAL PROTEIN: 5.87 G/DL
  URIC ACID: 1 mg/dL and 1.93 mg/dL
[3]
  ABSOLUTE BASOPHIL: 13.3 cells/µL
  ABSOLUTE EOSINOPHIL: 56.7 cells/µL
  ABSOLUTE LYMPHOCYTE: 4960 cells/µL
  ABSOLUTE MONOCYTE: 150 cells/µL
  BASOPHIL: 0.2%
  EOSINOPHIL: 0.83%
  ERYTHROCYTE COUNT: 5.65 x10E6/uL
  HEMATOCRIT: 36.77%
  HEMOGLOBIN: 11.77 G/DL
  LEUKOCYTE COUNT: 6.69 x10E3/uL
  LYMPHOCYTE: 74.03%
  MEAN CORPUSCULAR HEMOGLOBIN: 20.8 pg
  MEAN CORPUSCULAR HEMOGLOBIN CONCENTRATION: 31.97 G/DL
  MEAN CORPUSCULAR VOLUME: 65.1 fL
  MONOCYTE: 2.3%
  NEUTROPHIL: 22.1%
  PLATELET COUNT: 1167.67 x10E3/uL
[4]
  ALANINE AMINOTRANSFERASE: 33 u/L
  ALBUMIN: 3.6 G/DL
  ALKALINE PHOSPHATASE: 400 u/L
  ASPARTATE AMINOTRANSFERASE: 86.67 u/L
  BLOOD UREA NITROGEN: 14.67 mg/dL
  CARBON DIOXIDE: 33 mmol/L
  CHLORIDE: 106.67 MEQ/L
  CHOLESTEROL: 105 mg/dL
  CREATINE PHOSPHOKINASE: 281.33 u/L
  CREATININE: 0.6 mg/dL
  GLUCOSE: 99.33 mg/dL
  LACTATE DEHYDROGENASE: 93 u/L
  LIPASE: 24.67 u/L
  PHOSPHORUS: 11.33 mg/dL
  POTASSIUM: 5.6 MEQ/L
  SODIUM: 146 MEQ/L
  TOTAL BILIRUBIN: 0.2 mg/dL
  TOTAL PROTEIN: 5.87 G/DL
  URIC ACID: 0.93 mg/dL
[5]
  ABSOLUTE EOSINOPHIL: 59.67 CELLS/uL
  ABSOLUTE LYMPHOCYTE: 9880 CELLS/uL
  ABSOLUTE MONOCYTE: 232.33 CELLS/uL
  ABSOLUTE SEGMENTED NEUTROPHIL: 3561.33 CELLS/uL
  BASOPHIL: 0%
  EOSINOPHIL: 0.33%
  ERYTHROCYTE COUNT: 5.17 x10E6/uL
  HEMATOCRIT: 30.7%
  HEMOGLOBIN: 11.47 G/DL
  LEUKOCYTE COUNT: 13.73 x10E3/uL
  LYMPHOCYTE: 71.67%
  MEAN CORPUSCULAR HEMOGLOBIN: 22.2 pg
  MEAN CORPUSCULAR HEMOGLOBIN CONCENTRATION: 37.33 G/DL
  MEAN CORPUSCULAR VOLUME: 59.43 fL
  MONOCYTE: 1.67%
  NEUTROPHIL: 26.33%
  NUCLEATED RED BLOOD CELLS: 0 /100WBC
  PLATELET COUNT: 1159 x10E3/uL
[6]
  ALANINE AMINOTRANSFERASE: 55.33 u/L
  ALBUMIN: 3.73 G/DL
  ALKALINE PHOSPHATASE: 326.67 u/L
  ASPARTATE AMINOTRANSFERASE: 83 u/L
  BLOOD UREA NITROGEN: 14 mg/dL
  CARBON DIOXIDE: 28.67 mmol/L
  CHLORIDE: 100.67 MEQ/L
  CHOLESTEROL: 89.67 mg/dL
  CREATININE: 0.13 mg/dL
  GLUCOSE: 154 mg/dL
  LACTATE DEHYDROGENASE: 126.67 u/L
  LIPASE: 8.67 u/L
  PHOSPHORUS: 14.57 mg/dL
  POTASSIUM: 6.55 MEQ/L
  SODIUM: 144.37 MEQ/L
  TOTAL BILIRUBIN: 0.1 mg/dL
  TOTAL PROTEIN: 6.03 G/DL
  URIC ACID: 2.43 mg/dL

## CC[C@H]1CN2CCc3cc(OC)c(OC)cc3[C@@H]2C[C@@H]1C[C@H]1NCCc2cc(OC)c(OC)cc21 [EMETINE]
[7]
  ABSOLUTE EOSINOPHIL: 77.5 CELLS/uL
  ABSOLUTE LYMPHOCYTE: 12568.83 CELLS/uL
  ABSOLUTE MONOCYTE: 704.67 CELLS/uL
  ABSOLUTE SEGMENTED NEUTROPHIL: 2365.67 CELLS/uL
  BASOPHIL: 0%
  EOSINOPHIL: 0.5%
  ERYTHROCYTE COUNT: 5.83 x10E6/uL
  HEMATOCRIT: 36.08%
  HEMOGLOBIN: 13.22 G/DL
  LEUKOCYTE COUNT: 15.72 x10E3/uL
  LYMPHOCYTE: 80%
  MEAN CORPUSCULAR HEMOGLOBIN: 22.68 pg
  MEAN CORPUSCULAR HEMOGLOBIN CONCENTRATION: 36.63 G/DL
  MEAN CORPUSCULAR VOLUME: 61.88 fL
  MONOCYTE: 4.5%
  NEUTROPHIL: 15%
  NUCLEATED RED BLOOD CELLS: 0 /100WBC
  PLATELET COUNT: 1020.5 x10E3/uL
[8]
  ALANINE AMINOTRANSFERASE: 43.33 u/L
  ALKALINE PHOSPHATASE: 368 u/L
  ASPARTATE AMINOTRANSFERASE: 93 u/L
  BLOOD UREA NITROGEN: 12.33 mg/dL
  CARBON DIOXIDE: 27.17 mmol/L
  CHLORIDE: 99.5 MEQ/L
  CHOLESTEROL: 65.67 mg/dL
  CREATININE: 0.23 mg/dL
  GLUCOSE: 181.67 mg/dL
  LACTATE DEHYDROGENASE: 380.17 u/L
  LIPASE: 9.33 u/L
  PHOSPHORUS: 13.1 mg/dL
  POTASSIUM: 6.28 MEQ/L
  SODIUM: 143.03 MEQ/L
  TOTAL BILIRUBIN: 0.18 mg/dL
  TOTAL PROTEIN: 6.12 G/DL
  URIC ACID: 2.47 mg/dL
[9]
  ABSOLUTE EOSINOPHIL: 92 CELLS/uL
  ABSOLUTE LYMPHOCYTE: 11430 CELLS/uL
  ABSOLUTE MONOCYTE: 510 CELLS/uL
  ABSOLUTE SEGMENTED NEUTROPHIL: 1901.33 CELLS/uL
  BASOPHIL: 0%
  EOSINOPHIL: 0.67%
  ERYTHROCYTE COUNT: 5.8 x10E6/uL
  HEMATOCRIT: 35.23%
  HEMOGLOBIN: 12.63 G/DL
  LEUKOCYTE COUNT: 13.93 x10E3/uL
  LYMPHOCYTE: 82%
  MEAN CORPUSCULAR HEMOGLOBIN: 21.77 pg
  MEAN CORPUSCULAR HEMOGLOBIN CONCENTRATION: 35.87 G/DL
  MEAN CORPUSCULAR VOLUME: 60.83 fL
  MONOCYTE: 3.67%
  NEUTROPHIL: 13.67%
  NUCLEATED RED BLOOD CELLS: 0 /100WBC
  PLATELET COUNT: 1110.67 x10E3/uL
[10]
  ALANINE AMINOTRANSFERASE: 45.67 u/L
  ALKALINE PHOSPHATASE: 344 u/L
  ASPARTATE AMINOTRANSFERASE: 124 u/L
  BLOOD UREA NITROGEN: 13.33 mg/dL
  CARBON DIOXIDE: 27 mmol/L
  CHLORIDE: 100 MEQ/L
  CHOLESTEROL: 66.67 mg/dL
  CREATININE: 0.22 mg/dL
  GLUCOSE: 182 mg/dL
  LACTATE DEHYDROGENASE: 467.33 u/L
  LIPASE: 9.33 u/L
  PHOSPHORUS: 14.17 mg/dL
  POTASSIUM: 6.56 MEQ/L
  SODIUM: 143.9 MEQ/L
  TOTAL BILIRUBIN: 0.17 mg/dL
  TOTAL PROTEIN: 6.07 G/DL
  URIC ACID: 2.17 mg/dL
